Tests used:
HMG-CoAR = biological target: T1, HMG-CoAR (Homo sapiens, UniProt P04035); assay: In vitro HMG-CoAR activity assay (commercial kit, Sigma; NADPH oxidation at 340 nm); assay type: biochemical; conditions: 60 μg/ml
T1 construct: the oxidation of NADPH by the catalytic subunit of HMGR in the presence of the substrate of HMG-CoA; purchased Sigma, USA
T1 sequence (P04035 426-888 limits assumed): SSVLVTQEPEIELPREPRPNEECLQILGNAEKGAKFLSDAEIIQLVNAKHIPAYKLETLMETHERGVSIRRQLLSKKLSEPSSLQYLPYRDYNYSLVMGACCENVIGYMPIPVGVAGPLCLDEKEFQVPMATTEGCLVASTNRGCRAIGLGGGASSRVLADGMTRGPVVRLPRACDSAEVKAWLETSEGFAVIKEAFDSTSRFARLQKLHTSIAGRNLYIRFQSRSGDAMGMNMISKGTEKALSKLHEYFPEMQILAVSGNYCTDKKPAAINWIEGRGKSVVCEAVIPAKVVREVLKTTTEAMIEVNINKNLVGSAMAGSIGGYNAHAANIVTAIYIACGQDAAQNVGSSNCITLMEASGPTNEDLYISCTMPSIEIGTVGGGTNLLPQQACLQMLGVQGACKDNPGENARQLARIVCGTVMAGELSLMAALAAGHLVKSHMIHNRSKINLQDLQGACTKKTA
Description: Commercial HMG-CoAR activity assay kit (Sigma, USA) is used in this experiment. The HMG-CoAR activity assay is based on the spectrophotometric measurement of the decrease in absorbance at 340 nm, which represents the oxidation of NADPH by the catalytic subunit of HMGR in the presence of the substrate of HMG-CoA. Pravastatin (Positive control), 7E1 or 7E2 are tested in this assay.
The HMG-CoAR activity was determined by the commercially available in vitro assay kit (Sigma, USA). The protocol of the assay was performed as described in the manufacture's manual. The HMG-CoAR activity assay is based on the spectrophotometric measurement of the decrease in absorbance at 340 nm, which represents the oxidation of NADPH by the catalytic subunit of HMGR in the presence of the substrate of HMG-CoA.
To validate the inhibitory effect of HMG-CoAR activity of compounds 7E1 and 7E2, in vitro HMG-CoAR activity is performed. Commercial HMG-CoAR activity assay kit (Sigma, USA) is used. The HMG-CoAR activity assay is based on the spectrophotometric measurement of the decrease in absorbance at 340 nm, which represents the oxidation of NADPH by the catalytic subunit of HMGR in the presence of the substrate of HMG-CoA. HMG-CoAR inhibitory effect of Pravastatin (Positive control), 7E1 or 7E2 are tested.

[1] = tested on: yeast cells lacking HMG1 and HMG2 with HMG1 overexpression plasmid (HMG-CoAR); assay: Yeast HMG-CoAR screening assay (yeast cell growth, OD660, with or without mevalonate); assay type: cell-based, Saccharomyces cerevisiae; conditions: for growth inhibition in the yeast cells: without mevalonate; for restoration of growth / reduction of inhibitory effect in the presence of mevalonate (compounds from Fraction 7): 300 μg/ml (7E1: 150 μg/ml), with mevalonate
Text: The present invention provides a screening method to identify potential HMG-CoAR inhibitors. The present method comprises providing a yeast strain which lacks HMG1 and HMG2 genes but containing a HMG1 overexpression plasmid, contacting said yeast strain with a test material. If the test material can inhibit the HMG1 activity or expression, the yeast cells will die. In order to validate the death of yeast cells is due to inhibition of HMG1 by the test material, the present invention also includes adding mevalonate compound, which is a downstream product of the HMG-CoAR. HMG-CoAR inhibitory activity of the test material is confirmed if the cell viability of the yeast strain is unaffected by the test material in the presence of mevalonate.
Saccharomyces cerevisiae (MATa ade2-101 his3-200 hmg1::LYS2 hmg2:his3 lys2-80 met TRP1 ura3-52 with overexpression of yeast HMG1 containing plasmid) were used in the screening assay. Cells were grown at 30° C. in YEPD, consisting of 10 g/L yeast extract, 20 g/L Bacto-peptone and 20 g/L dextrose.
Yeast cells were grown overnight in YEPD medium to ^˜7.0 OD660 at 30° C. Cells were then subculture to a fresh YEPD medium with starting ^˜0.1 starting OD660 and grew for another 8 hours to ^˜1.2 OD660. The assay was performed in a 96-well plate. 2.7×10^4 cells, tested drugs/chemicals and/or mevalonate were added to each well in a final volume of 100 μl. All experiments were performed in triplicate. Cells were then grown for 16 hours at 30° C. and the inhibitory effect of HMG-CoAR determined by measuring the cell density OD660 of each well by a micro-plate reader. Statin was used as a positive control and mevalonate supplement was used to validate the inhibitory effect of tested compounds on HMG-CoAR.

Compound | inhibition of HMG-CoAR activity in vitro (HMG-CoAR) | growth inhibition in the yeast cells ([1]; 150 μg/ml) [%] | restoration of growth / reduction of inhibitory effect in the presence of mevalonate (compounds from Fraction 7) [1] | growth inhibition in the yeast cells ([1]; 300 μg/ml) [%]
gypenoside XLV-Ed [Compound 7E1] | can inhibit the HMG-CoAR activity | 65 | significant reduction of inhibitory effects | –
CC(C)=CCC[C@](C)(O[C@@H]1O[C@H](CO[C@@H]2OC[C@@H](O)[C@H](O)[C@H]2O)[C@@H](O)[C@H](O)[C@H]1O)[C@H]1CC[C@]2(C)[C@@H]1[C@H](O)C[C@@H]1[C@@]3(C)CC[C@H](O[C@@H]4O[C@H](CO)[C@@H](O)[C@H](O)[C@H]4O)C(C)(C)[C@@H]3CC[C@]12C [Compound 7E2, gypenoside IX] | can inhibit the HMG-CoAR activity | – | significant reduction of inhibitory effects | 80

Reference: patent publication US20130210752A1, “USING A NOVEL HIGH-THROUGHPUT YEAST CELL-BASED SCREENING PLATFORM TO IDENTIFY HMG-COA REDUCTASE INHIBITORS FROM NATURAL PRODUCTS AND THE USES OF SUCH INHIBITORS THEREOF” (HONG KONG BAPTIST UNIVERSITY, priority 2012, published 2013)
